Test results as given in US12473324B2, “Triazine-based amphiphilic compound and use thereof” (INDUSTRY-UNIVERSITY COOPERATION FOUNDATION HANYANG …, priority 2019, dated 2025).

What was measured:
[1] = Hydrodynamic radius (Rh) of micelles by dynamic light scattering (DLS); format: physicochemical; conditions: 1.0 wt % detergent
Description: A method of measuring the radius of micelle is not particularly limited, but a method widely known in the art may be used, and for example, the radius of micelle may be measured using a dynamic light scattering (DLS) experiment.
(§1) Specifically, the critical micelle concentrations (CMCs) were measured using a fluorescent dye, diphenylhexatriene (DPH), and the hydrodynamic radii (Rh) of micelles formed by each preparation (1.0 wt %) were determined by a dynamic light scattering (DLS) experiment. The measured results are shown in Table 1 compared to DDM which is an existing amphiphilic molecule (detergent).

μ-opioid receptor (MOR) [2] = target: T1, μ-opioid receptor (MOR) (Mus musculus, UniProt P42866); test: MOR thermal stability test (CPM dye, melting point Tm); format: biochemical; conditions: 0.5 wt % compound, CPM fluorescence, 20° C. to 65° C.
T1 sequence (P42866 whole entry): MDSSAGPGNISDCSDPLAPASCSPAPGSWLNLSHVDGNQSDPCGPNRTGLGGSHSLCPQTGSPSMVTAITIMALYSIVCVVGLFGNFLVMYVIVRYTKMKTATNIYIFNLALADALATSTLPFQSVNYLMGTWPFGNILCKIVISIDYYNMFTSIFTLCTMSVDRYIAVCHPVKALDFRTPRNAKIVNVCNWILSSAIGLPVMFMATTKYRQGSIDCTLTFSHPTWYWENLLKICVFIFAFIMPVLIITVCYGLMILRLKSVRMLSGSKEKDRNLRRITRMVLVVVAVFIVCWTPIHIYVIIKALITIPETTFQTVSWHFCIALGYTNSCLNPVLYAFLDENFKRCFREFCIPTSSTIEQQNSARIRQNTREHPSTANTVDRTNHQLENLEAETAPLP
Description: An N-[4-(7-diethylamino-4-methyl-3-coumarinyl)phenyl]maleimide (CPM) dye dissolved in DMSO (3 mg/ml) was diluted 40× in a buffer including 20 mM HEPES pH 7.5 and 150 mM NaCl. […] After 1 hour at room temperature, a compound was prepared at a final concentration of 0.5 wt % by diluting the receptor solution 2× in 20 mM HEPES pH 7.5, 150 mM NaCl. After […] of the diluted CPM dye was added thereto, the receptor stability of different compounds was measured by recording the fluorescence spectra (excitation 387 nm) every 5° C. from 20° C. to 65° C. while culturing at each temperature for 2 minutes. The melting point (Tm) was calculated by plotting the read value at 470 nm and fitting a non-linear regression curve using GraphPad Prism.

[3] = Solubility of detergent (Table 1); format: physicochemical
[4] = Critical micelle concentration (CMC) by fluorescent dye diphenylhexatriene (DPH); format: physicochemical; conditions: DPH fluorescence
Description: A method of measuring the CMC is not particularly limited, but a method widely known in the art may be used, and for example, the CMC may be measured by a fluorescent staining method using diphenylhexatriene (DPH).
as §1

AtBOR1 = AtBOR1 (Arabidopsis thaliana, UniProt Q8VYR7); test: AtBOR1 thermal denaturation, CPM assay; format: biochemical; conditions: CMC+0.04 wt %, 40° C., 120 minutes
Chain of AtBOR1 (Q8VYR7 whole entry): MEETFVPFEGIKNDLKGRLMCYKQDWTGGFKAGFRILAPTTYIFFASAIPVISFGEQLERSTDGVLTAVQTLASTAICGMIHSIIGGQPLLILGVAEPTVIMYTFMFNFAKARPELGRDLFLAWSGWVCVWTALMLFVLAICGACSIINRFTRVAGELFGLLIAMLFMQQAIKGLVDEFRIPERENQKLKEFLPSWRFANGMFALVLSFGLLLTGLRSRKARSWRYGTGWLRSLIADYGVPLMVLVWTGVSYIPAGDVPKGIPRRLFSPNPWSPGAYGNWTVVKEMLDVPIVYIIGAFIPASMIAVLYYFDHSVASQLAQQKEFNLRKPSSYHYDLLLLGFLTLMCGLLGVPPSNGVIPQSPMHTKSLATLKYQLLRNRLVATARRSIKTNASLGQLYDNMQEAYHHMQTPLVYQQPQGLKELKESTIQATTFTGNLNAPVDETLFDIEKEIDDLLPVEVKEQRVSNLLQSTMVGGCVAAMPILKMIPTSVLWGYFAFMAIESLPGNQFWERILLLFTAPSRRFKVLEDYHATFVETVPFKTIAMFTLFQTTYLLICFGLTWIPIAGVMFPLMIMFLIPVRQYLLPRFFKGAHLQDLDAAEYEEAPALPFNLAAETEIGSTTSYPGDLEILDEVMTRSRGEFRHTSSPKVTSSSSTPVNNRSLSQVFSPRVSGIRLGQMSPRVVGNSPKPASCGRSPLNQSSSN
Description: CPM assay: AtBOR1 was concentrated to 10 mg/ml in a buffer (20 mM Tris-HCl (pH 7.5), 150 mM NaCl, 0.03% DDM) with a 100 kDa MWCO centrifugal filter, stored at −80° C. and thawed immediately prior to thermal stability analysis. […] A 7-diethylamino-3-(4′-maleimidylphenyl)-4-methylcoumarin (CPM) dye (Invitrogen) was dissolved in DMSO at 4 mg/ml, and was diluted 1:100 with a buffer (150 mM NaCl supplemented with 20 mM Tris-HCl (pH 7.5) and 0.03% DDM). After 3 μL of the CPM dye was added to each well in the dark, the plate was covered with a transparent lid and the cells were cultured at 40° C. for 120 minutes. Fluorescence emission was monitored every 5 minutes using SpectraMax M2 (Molecular Devices) with a […] of 387 nm and an emission wavelength of 463 nm. Fluorescence readings were normalized under the most unstable conditions to calculate the percentage of proteins that were relatively unfolded. Data was analyzed as a single exponential decay curve using GraphPad Prism 6.

BOR1-GFP fusion protein = test: AtBOR1 thermal stability, fluorescence size exclusion chromatography (FSEC); conditions: 1% detergent, heated at 47° C. for 10 minutes
Description: Fluorescence size exclusion chromatography (FSEC): BOR1 of Arabidopsis thaliana was expressed in Saccharomyces cerevisiae FGY217 cells as a fusion protein having a C-terminal GFP tag. The cells were grown in a URA medium supplemented with 0.1% glucose. Protein expression was induced by adding 2% galactose, and then the cells were cultured at 20° C. for 18 hours as previously described. The cells were collected and used to prepare a membrane. The membrane including the BOR1-GFP fusion protein was diluted as follows. […] Samples were cultured while shaking at 4° C. for 1 hour, and then insoluble materials were removed by centrifugation at 14,000 g and 4° C. for 1 hour. A supernatant including the solubilized protein sample was heated at 47° C. for 10 minutes. After additional centrifugation to remove large aggregates, a 200 μl aliquot of the sample was injected into a Superose 6 10/300 column equilibrated with 20 mm Tris (pH 7.5), 150 mm NaCl and 0.03% DDM. The GFP fluorescence of each fraction was read using an excitation wavelength of 470 nm and an emission wavelength of 512 nm.

[5] = tested on: leucine transporter (LeuT); test: LeuT structural stability: [3H]-Leu binding by scintillation proximity assay (SPA); format: biochemical, Aquifex aeolicus; conditions: CMC+0.04 wt % or CMC+0.2 wt %, room temperature, 13-day incubation, [3H]-Leu SPA
Description: Experiments were performed to measure the structural stability of the LeuT protein by TSMs, TTGs and TEMs. Each amphiphilic compound was used at a concentration of (a) CMC+0.04 wt % or (b) CMC+0.2 wt %, and the substrate binding properties of LeuT were measured using [^3H]-Leu via scintillation proximity assay (SPA). The measurement was performed at regular intervals over the course of a 13-day and 12-day incubation at room temperature, respectively.
Specifically, a wild-type leucine transporter (LeuT) derived from the thermophilic bacterium Aquifex aeolicus was purified by a previously described method (Nature 1998, 392, 353-358 by G. Deckert et al.). LeuT was expressed in E. coli C41 (DE3) transformed with pET16b encoding the C-terminal 8×His-tagged transporter (expression plasmids were provided from Dr E. Gouaux, Vollum Institute, Portland, Oregon, USA). In summary, after a bacterial membrane was isolated and solubilized in 1 wt % DDM, the protein was bound to Ni^2+-NTA resin (Life Technologies, Denmark), and eluted in 20 mM Tris-HCl (pH 8.0), 1 mM NaCl, 199 mM KCl, 0.05% (w/v) DDM and 300 mM imidazole. Then, the purified LeuT (0.5 mg/ml) was diluted with buffers supplemented with TSMs, TTGs, TEMs or DDM at a final concentration of CMC+0.04% (w/v) or CMC+0.2% (w/v) except for DDM and imidazole in the equivalent buffer described above. Protein samples were incubated at room temperature for 13 days, centrifuged at a specified time, and protein properties were confirmed by measuring [^3H]-Leucine binding ability using SPA. SPA was performed with 5 μL of each protein sample in a buffer containing 450 mM NaCl and each of TSMs and TEMs (or DDM). The SPA reaction was performed in the presence of 20 nM [^3H]-Leucine and 1.25 mg/ml copper chelate (His-Tag) YSi beads (PerkinElmer, Denmark). Overall [^3H]-Leucine coupling to each sample was measured using a MicroBeta liquid scintillation counter (Perkin Elmer).

μ-opioid receptor (MOR) [6] = target: T1, μ-opioid receptor (MOR); conditions: LMNG not among the compounds of the described test; cited from earlier work

SMILES	Rh (nm) [1]	MOR melting point (Tm) (μ-opioid receptor (MOR) [2])	solubility [3]	CMC [4]	ability to preserve AtBOR1 in the folded state (CPM) (AtBOR1)	AtBOR1 thermal stability by FSEC (protein peak vs aggregation peak) (BOR1-GFP fusion protein)	LeuT substrate binding properties over incubation [5]	MOR melting point (Tm) of LMNG, comparison value (μ-opioid receptor (MOR) [6])
CCCCCCCCCCOc1nc(OCCCCCCCCCC)nc(N(CCO[C@@H]2O[C@H](CO)[C@@H](O[C@H]3O[C@H](CO)[C@@H](O)[C@H](O)[C@H]3O)[C@H](O)[C@H]2O)CCO[C@@H]2O[C@H](CO)[C@@H](O[C@H]3O[C@H](CO)[C@@H](O)[C@H](O)[C@H]3O)[C@H](O)[C@H]2O)n1 [TEM-E10]	4.5 ± 0.1 nm	48.0 °C	~5%	~0.005 mM	best performance	highly effective in maintaining the initial state of the protein	best substrate binding activity	
CCCCCCCCCCC(CCCCCCCCCC)(CO[C@@H]1O[C@H](CO)[C@@H](O[C@H]2O[C@H](CO)[C@@H](O)[C@H](O)[C@H]2O)[C@H](O)[C@H]1O)CO[C@@H]1O[C@H](CO)[C@@H](O[C@H]2O[C@H](CO)[C@@H](O)[C@H](O)[C@H]2O)[C@H](O)[C@H]1O [LMNG]								38.3 °C
